Drawing on PMC5907308, “21st Brazilian Diabetes Society Congress” (Diabetology & Metabolic Syndrome, 2018), this text covers clinical course for one molecule.

The structures appear in SMILES notation.

The assay deals with patient with DM1 and suspected hyporeninemic hypoaldosteronism. As to the kind of experiment: Case report: fludrocortisone therapeutic test. In kind it is in vivo, human. The settings on record: fludrocortisone 0.2 mg/day. As for the experimental part: Case presentation: A person, diagnosed with type 1 diabetes mellitus (DM1) for 12 years, presented progressive of walking difficulties 5 years ago, associated with dizziness, weakness, and tachycardia at rest with hypotension. […] Neuropathy Disability Score (NDS) was carried out, presenting 10 out of 10 points, classified as severe impairment. Because of an extremely significant clinical condition, with no evidence of microvascular compromise, hyporeninemic hypoaldosteronism (HH) was investigated. […] Subsequently, the patient was exposed to the exogenous ACTH test, with the administration of ACTH 250mcg intravenous and dosages of serum cortisol and aldosterone at times 0‘, 30‘, 60‘. There was an elevation of serum cortisol to levels above the limit of normality (18 mcg/dL), discarding primary adrenal insufficiency, and aldosterone levels at the lower limit of normal (attached tables). Even tests without confirmation, the use of fludrocortisone 0.2 mg/day was started as a therapeutic test.

`C[C@]12CCC(=O)C=C1CC[C@H]1[C@@H]3CC[C@](O)(C(=O)CO)[C@@]3(C)C[C@H](O)[C@@]12F` [fludrocortisone]: the clinical course result was “improvement of the blood pressure (BP) and dizziness”.
